Measured values as given in patent US9062055B2, “Fused pyrrole derivatives as PI3K inhibitors” (Incyte Corporation, priority 2010, dated 2015).
Structures can show the parent of a compound that is named as a salt.

These molecules were tested against T1, PI3Kδ (p110δ/p85α) (Homo sapiens, UniProt O00329) (assay: PI3Kδ Scintillation Proximity Assay). Conditions: TFA salts of racemates tested; 20 μM PIP2, 20 μM ATP, 4 nM PI3Kδ, 210 min, room temperature.
T1 construct: purchased Millipore (Bedford, Mass.)
T1 sequence (O00329 whole entry): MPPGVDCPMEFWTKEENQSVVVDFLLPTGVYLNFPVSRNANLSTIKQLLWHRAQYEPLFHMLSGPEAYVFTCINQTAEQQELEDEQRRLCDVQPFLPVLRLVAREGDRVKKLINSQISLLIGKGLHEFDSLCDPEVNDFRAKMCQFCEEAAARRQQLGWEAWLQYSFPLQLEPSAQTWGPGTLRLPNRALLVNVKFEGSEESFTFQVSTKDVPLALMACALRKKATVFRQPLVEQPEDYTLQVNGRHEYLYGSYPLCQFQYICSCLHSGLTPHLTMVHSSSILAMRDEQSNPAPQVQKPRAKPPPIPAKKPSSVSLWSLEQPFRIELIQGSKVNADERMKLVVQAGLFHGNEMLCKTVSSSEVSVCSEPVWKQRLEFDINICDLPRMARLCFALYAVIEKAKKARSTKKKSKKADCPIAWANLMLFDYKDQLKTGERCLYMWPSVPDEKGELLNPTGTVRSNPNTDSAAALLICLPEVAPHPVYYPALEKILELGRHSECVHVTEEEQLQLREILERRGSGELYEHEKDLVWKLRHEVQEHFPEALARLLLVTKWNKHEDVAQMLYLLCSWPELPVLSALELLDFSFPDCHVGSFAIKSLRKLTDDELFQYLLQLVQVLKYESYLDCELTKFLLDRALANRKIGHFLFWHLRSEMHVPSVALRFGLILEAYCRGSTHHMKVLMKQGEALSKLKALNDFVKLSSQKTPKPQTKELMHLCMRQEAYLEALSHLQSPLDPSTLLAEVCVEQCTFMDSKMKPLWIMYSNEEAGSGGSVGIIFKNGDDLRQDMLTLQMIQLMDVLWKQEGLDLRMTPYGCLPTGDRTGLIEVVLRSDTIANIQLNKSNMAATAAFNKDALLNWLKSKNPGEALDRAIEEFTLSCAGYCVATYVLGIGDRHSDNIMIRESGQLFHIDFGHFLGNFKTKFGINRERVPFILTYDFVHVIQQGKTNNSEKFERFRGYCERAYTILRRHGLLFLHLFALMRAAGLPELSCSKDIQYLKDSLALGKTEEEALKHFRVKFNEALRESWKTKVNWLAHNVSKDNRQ
T1 sequence (P27986 whole entry partner): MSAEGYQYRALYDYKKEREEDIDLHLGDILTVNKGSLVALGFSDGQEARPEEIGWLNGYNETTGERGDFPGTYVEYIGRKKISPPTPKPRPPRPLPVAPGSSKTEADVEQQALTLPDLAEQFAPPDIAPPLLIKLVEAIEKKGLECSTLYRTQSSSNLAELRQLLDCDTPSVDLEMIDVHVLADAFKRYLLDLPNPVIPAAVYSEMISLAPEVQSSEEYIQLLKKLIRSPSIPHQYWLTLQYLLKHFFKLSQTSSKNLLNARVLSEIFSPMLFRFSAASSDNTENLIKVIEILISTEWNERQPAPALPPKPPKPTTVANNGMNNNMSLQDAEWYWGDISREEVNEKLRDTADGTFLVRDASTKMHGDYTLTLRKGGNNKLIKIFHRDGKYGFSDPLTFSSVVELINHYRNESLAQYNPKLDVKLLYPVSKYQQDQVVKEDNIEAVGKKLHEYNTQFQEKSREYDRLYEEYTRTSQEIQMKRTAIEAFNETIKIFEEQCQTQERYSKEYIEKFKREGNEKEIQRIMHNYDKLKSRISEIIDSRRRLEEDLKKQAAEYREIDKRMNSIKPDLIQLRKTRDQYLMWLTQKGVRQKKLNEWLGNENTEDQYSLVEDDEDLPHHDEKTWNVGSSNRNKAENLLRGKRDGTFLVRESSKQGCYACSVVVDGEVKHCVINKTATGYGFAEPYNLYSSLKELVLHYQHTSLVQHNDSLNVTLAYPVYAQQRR
Type: biochemical
From the text: [γ-^33P]ATP (10 mCi/mL) was purchased from Perkin-Elmer (Waltham, Mass.). Lipid kinase substrate, D-myo-Phosphatidylinositol 4,5-bisphosphate (PtdIns(4,5)P2)D (+)-sn-1,2-di-O-octanoylglyceryl, 3-O-phospho linked (PIP2), CAS 204858-53-7, was purchased from Echelon Biosciences (Salt Lake City, Utah). PI3Kδ (p110δ/p85α) was purchased from Millipore (Bedford, Mass.). ATP, MgCl2, DTT, EDTA, MOPS and CHAPS were purchased from Sigma-Aldrich (St. Louis, Mo.). Wheat Germ Agglutinin (WGA) YSi SPA Scintillation Beads was purchased from GE healthcare life sciences (Piscataway, N.J.). The kinase reaction was conducted in polystyrene 384-well matrix white plate from Thermo Fisher Scientific in a final volume of 25 μL. Inhibitors were first diluted serially in DMSO and added to the plate wells before the addition of other reaction components. The final concentration of DMSO in the assay was 0.5%. The PI3K assays were carried out at room temperature in 20 mM MOPS, pH 6.7, 10 mM MgCl2, 5 mM DTT and CHAPS 0.03%. Reactions were initiated by the addition of ATP, the final reaction mixture consisted of 20 μM PIP2, 20 μM ATP, 0.2 μCi [γ-^33P] ATP, 4 nM PI3Kδ. Reactions were incubated for 210 min and terminated by the addition of 40 μL SPA beads suspended in quench buffer: 150 mM potassium phosphate pH 8.0, 20% glycerol. 25 mM EDTA, 400 μM ATP. The final concentration of SPA beads was 1.0 mg/mL After the plate sealing, plates were shaken overnight at room temperature and centrifuged at 1800 rpm for 10 minutes, the radioactivity of the product was determined by scintillation counting on Topcount (Perkin-Elmer). IC50 determination was performed by fitting the curve of percent control activity versus the log of the inhibitor concentration using the GraphPad Prism 3.0 software. See Table 1 for data related to compounds of the invention (TFA salts of racemates of each of the compounds were tested).
In the case of `CC(Nc1ncnc2[nH]cnc12)c1cc2ccc(Cl)cc2n1-c1cccc(F)c1` (racemic) [Example 1, N-{1-[6-Chloro-1-(3-fluorophenyl)-1H-indol-2-yl]ethyl}-9H-purin-6-amine trifluoroacetate], the IC50 is reported as 100 to 250 nM. In the case of `CC(Nc1ncnc2[nH]cnc12)c1cc2c(Cl)cccc2n1-c1cccc(F)c1` (racemic) [Example 2, N-{1-[4-Chloro-1-(3-fluorophenyl)-1H-indol-2-yl]ethyl}-9H-purin-6-amine trifluoroacetate], the IC50 is reported as no more than 50 nM. In the case of `CC(Nc1ncnc2[nH]cnc12)c1c(Cl)c2cccnc2n1-c1cccc(F)c1` (racemic) [Example 6, N-{1-[3-Chloro-1-(3-fluorophenyl)-1H-pyrrolo[2,3-b]pyridin-2-yl]ethyl}-9H-purin-6-amine bis(trifluoroacetate)], the IC50 is reported as no more than 50 nM. `CC(Nc1ncnc2[nH]cnc12)c1cc2cccnc2n1-c1cccc(F)c1` (racemic) [Example 7, N-(1-(1-(3-Fluorophenyl)-1H-pyrrolo[2,3-b]pyridin-2-yl)ethyl)-9H-purin-6-amine bis(2,2,2-trifluoroacetate)] showed an IC50 of 250 to 750 nM. In the case of `CC(Nc1ncnc2[nH]cnc12)c1c(Cl)c2c(Cl)cccc2n1-c1cccc(F)c1` (racemic) [Example 4, N-{1-[3,4-Dichloro-1-(3-fluorophenyl)-1H-indol-2-yl]ethyl}-9H-purin-6-amine trifluoroacetate], the IC50 is reported as 50 to 100 nM. With `CC(Nc1ncnc2[nH]cnc12)c1c(C#N)c2ccccc2n1-c1cccc(F)c1` (racemic) [Example 9, 2-(1-(9H-Purin-6-ylamino)ethyl)-1-(3-fluorophenyl)-1H-indole-3-carbonitrile 2,2,2-trifluoroacetate] the IC50 was no more than 50 nM. Work on `Cc1c(C(C)Nc2ncnc3[nH]cnc23)n(-c2cccc(F)c2)c2ccccc12` (racemic) [Example 8, N-{1-[1-(3-Fluorophenyl)-3-methyl-1H-indol-2-yl]ethyl}-9H-purin-6-amine trifluoroacetate] yielded an IC50 of no more than 50 nM. `CC(Nc1ncnc2[nH]cnc12)c1c(Br)c2ccccc2n1-c1cccc(F)c1` (racemic) [Example 5, N-{1-[3-Bromo-1-(3-fluorophenyl)-1H-indol-2-yl]ethyl}-9H-purin-6-amine trifluoroacetate] showed an IC50 of 50 to 100 nM. Molecule `CC(Nc1ncnc2[nH]cnc12)c1c(Cl)c2ccccc2n1-c1cccc(F)c1` (racemic) [Example 3, N-{1-[3-Chloro-1-(3-fluorophenyl)-1H-indol-2-yl]ethyl}-9H-purin-6-amine trifluoroacetate] has an IC50 of no more than 50 nM. `CC(Nc1ncnc2[nH]cnc12)c1c(F)c2cccnc2n1-c1cccc(F)c1` (racemic) [Example 10, N-(1-(3-Fluoro-1-(3-fluorophenyl)-1H-pyrrolo[2,3-b]pyridin-2-yl)ethyl)-9H-purin-6-amine bis(2,2,2-trifluoroacetate)] was tested, and the IC50 was 100 to 250 nM.
